“Also recorded” adds a separate entry of the source.
Columns and labels:
[1] = system: CB-derived cultures (CD45+/CD11b+ macrophages, Sca1+ monocytes); test: Flow cytometry of CB-derived expansion cultures; assay type: cell-based, mouse
Description: (§1) c. Expansion of Human BM and Mouse BM and CB-Derived Cells Assay • 1. […] Cultures were allowed to grow for 10-14 days until adherent cells achieved 70 to 80% confluence. Mouse cultures were maintained under normal (5% CO2) or hypoxic conditions (5% CO2/5% O2) at 37 C in a cell culture incubator. Human cultures were maintained under 5% CO2 at 37 C in a humidified cell culture incubator. • 3. Adherent cells were passaged by releasing cultures from flask. Cultures were washed with 5 mL PBS and then 5 mL of 0.25% trypsin solution ([…] catalogue #07901) was added and the flasks incubated for 10 min at 37 C. To each flask, 5 mL complete medium was added to stop trypsin activity. • 4. Released cells were collected into a tube and centrifuged at 300×g for 5 minutes. • 5. Cells were resuspended in 2 mL of medium and counted using a hemocytometer. • 6. […] P1 cultures were incubated until they reached 70 to 80% confluence. • 8. Passaged cultures can be used at any time from P0 to P10 as needed for different applications.
(§2) d. Flow Cytometry Analysis • 1. Cultures of BM and CB-derived cells were trypsinized for 10 minutes and an equal volume of complete medium was added to cultures to stop trypsin activity • 2. Cell suspension was filtered through a 40 μm strainer, and cells counted using a hemocytometer • 3. Suspension was spun down at 300×g for 5 minutes. • 4. Supernatant was removed and cell pellet resuspended in FACS buffer (PBS with 2% FBS and 1 mM EDTA) • 5. A total of 1×10^5 cells in 300 μL FACS buffer was used for each flow cytometry analysis tube, including unstained, viability, compensation, and isotype controls. • 6. Cell suspensions were stained with fluorophore-labeled antibodies against CD45, CD11b, and Sca1, CD29, and viability dye. • 7. Cell suspensions were analyzed on a flow cytometer using compensation and isotype control to determine laser voltage and gating. • 8. Samples were gated on viable CD45^+ cells and 10,000 events per sample were collected. Alternatively, cells were gated on viable CD45^− cells and out of this gate the proportion of CD29+/Sca1^+ cells obtained.

[2] = system: BM-derived cultures (macrophage contamination, MSC morphology); test: Images of BM-derived expansion cultures; assay type: cell-based, mouse; settings: for macrophage contamination and MSC enrichment (images): BM
Description: as §1

mouse BM-MSC cultures = test: Osteogenic and adipogenic differentiation of mouse BM-MSC; assay type: cell-based
Description: During the process of culture, expansion, or maintenance of MSCs, it is imperative that these cells maintain their functional properties so they can be used for specific downstream applications, including characterization by differentiation. […] BM-MSCs that were initially exposed to vehicle- or GW2580-containing media were plated at 3 different densities (FIG. 18A) in MesenCult Proliferation Medium and allowed to adhere to the plates overnight. Cultures were then differentiated for 14 days in MesenCult Osteogenic Medium, and the medium changed every 3 days. Osteogenic cultures were then fixed and stained for alkaline phosphates (ALP) activity (red areas) and mineralization (black areas). In control cultures ([…]), a modest differentiation into the osteogenic lineage was only observed when cultures were seeded at the highest density of 1.2×10^5 cells/cm^2. […] Cultures were then differentiated for 14 days into the adipogenic and osteogenic lineages (FIG. 18B).

[3] = system: CB-MSCs (CD45−/CD29+/Sca1+); test: Total cell count with flow cytometry, CB-MSC cultures; assay type: cell-based, mouse
Description: as §2
Prior to flow cytometry, control and GW2580-treated cultures of BM- and CB-MSC were dissociated from tissue culture flasks by trypsinization and the total number of cells counted with the aid of a hemocytometer. Flow cytometry analysis was performed and the ratio of CD45^− cells and CD45^−/CD29^+/Sca1^+ cells applied to the total number of cells to obtain the actual number of these cells in culture (Table 2).

[4] = system: CSF-1-independent cell line, human fibroblasts, and other endothelial cells; settings: cited from earlier work
[5] = CB, 1 μM P0-P1 then vehicle P2-P3, analysed at P3, adherent cells
[6] = CB, 1 μM P0-P1 then vehicle P2-P3, analysed at P3, non-adherent cells
[7] = CB, P4, DMSO P0-P2 then 1 μM GW2580 P3-P4, or P4 control cultures EasySep-enriched
[8] = CB-MSCs, 2.5 uM GW2580, 14 days during P0

COc1ccc(COc2ccc(Cc3cnc(N)nc3N)cc2OC)cc1 [GW2580, 5-(3-Methoxy-4-((4-methoxybenzyl)oxy)benzyl)pyrimidine-2,4-diamine]
dose-response increase in CD45+/CD11b+/Sca1+ hematopoietic monocytes ([1]; CB, 1 μM): 18% | number of CD45+/CD11b+/Sca1+ monocytes ([1]; CB, 1 μM (control 7%)): 25% | number of CD45+ cells ([1]; CB, 1 μM (control 78%)): 64% | CD45+/CD11b+ mature macrophages ([1]; CB, 1 μM (control 93%)): 75% | CD45+/CD11b+/Sca1+ monocytes, of CD45+ cells [1, 5]: 2% | CD45+/CD11b+/Sca1− mature macrophages, of CD45+ cells [1, 5]: 97% | CD45+/CD11b+/Sca1+ monocytes, of CD45+ cells [1, 6]: < 1% | CD45+/CD11b+/Sca1− mature macrophages, of CD45+ cells [1, 6]: 99% | CD11b+/Sca1+ hematopoietic monocytes, of CD45+ cells ([1]; CB, 1 μM P0 to P2): 28% | CD11b+/Sca1− mature macrophages, of CD45+ cells ([1]; CB, 1 μM P0 to P2): 62% | overall reduction in CD45+ cells ([1]; CB, 1 μM P0 to P2): 15% | reduction in CD45+/CD11b+/Sca1+ monocyte differentiation into mature macrophage (increase in Sca1+ fraction vs control) ([1]; CB, 1 μM P0 to P2): 22% | CD11b+/Sca1+ hematopoietic monocytes, of CD45+ cells ([1]; CB, 1 μM P0 to P3): 20% | CD11b+/Sca1− mature macrophages, of CD45+ cells ([1]; CB, 1 μM P0 to P3): 76% | overall reduction in CD45+ cells ([1]; CB, 1 μM P0 to P3): 55% | reduction in CD45+/CD11b+/Sca1+ monocyte differentiation into macrophage (increase in Sca1+ cells vs control) ([1]; CB, 1 μM P0 to P3): 8% | reduction in CD45+/CD11b+/Sca1− mature macrophage differentiation ([1]; CB, 1 μM, at P3): 12% | dose-response increase in CD45+/CD11b+/Sca1+ hematopoietic monocytes ([1]; CB, 5 μM): 32% | number of CD45+/CD11b+/Sca1+ monocytes ([1]; CB, 5 μM (control 7%)): 39% | number of CD45+ cells ([1]; CB, 5 μM (control 78%)): 36% | CD45+/CD11b+ mature macrophages ([1]; CB, 5 μM (control 93%)): 60% | dose-response increase in CD45+/CD11b+/Sca1+ hematopoietic monocytes ([1]; CB, 10 μM): 41% | number of CD45+/CD11b+/Sca1+ monocytes ([1]; CB, 10 μM (control 7%)): 48% | number of CD45+ cells ([1]; CB, 10 μM (control 78%)): 30% | CD45+/CD11b+ mature macrophages ([1]; CB, 10 μM (control 93%)): 50% | CD45+/CD11b+ mature macrophages, of total viable cells ([1]; CB, P1, 1 μM): 34% | reduction in macrophages vs control ([1]; CB, P1, 1 μM): 50% | CD11b+/Sca1+ monocytes, of CD45+ cells [1, 7]: about 75% | CD11b+/Sca1− mature macrophages, of CD45+ cells [1, 7]: around 25% | CD45+/CD11b+ mature macrophages, of viable cells ([1]; CB-derived cultures, 1 μM up to P2): < 1% | macrophage contamination and MSC enrichment (images) ([2]; 1 μM continuous P0-P3): have reduced numbers of macrophages; also recorded: contain a much reduced number of these contaminating macrophages | macrophage contamination and MSC enrichment (images) ([2]; 1 μM, P2): a much reduced number of macrophages is observed; also recorded: enriched and mostly devoid of macrophage contamination | macrophage contamination and MSC appearance (images) ([2]; BM, 1, 5 and 10 μM): have reduced numbers of contaminating macrophages; also recorded: a noticeable decrease in macrophages was noticed | osteogenic differentiation (ALP activity, mineralization) (mouse BM-MSC cultures; BM-MSC, 1 uM for 2 passages, seeded at 4.0×10^4 cells/cm^2, 14 days): a significant and robust increase in osteogenic differentiation | adipogenic and osteogenic differentiation (Oil Red O, ALP/mineralization) (mouse BM-MSC cultures; BM-MSC, 2.5 uM for 2 passages, plated at 4.0×10^4 cells/cm^2, 14 days): substantial adipogenic and osteogenic differentiation | differentiation into osteogenic and adipogenic lineages vs control cultures (mouse BM-MSC cultures; mouse BM-MSC exposed to GW2580 during expansion): stronger and more robust differentiation | increase in number of CD45−/CD29+/Sca1+ MSCs vs control ([3]; CB-MSC, 2.5 uM GW2580): 310% | Actual number of cells, CD45− [3, 8]: 530,702 | Actual number of cells, CD45−/CD29+/Scal+ [3, 8]: 507,616 | CD45−, Percent (Flow Cytometry) [3, 8]: 95.45% | total cells [3, 8]: 5.56E+05 | CD45−/CD29+/Scal+, Percent (Flow Cytometry) ([3]; CB-MSCs, 2.5 uM GW2580, 14 days during P0, out of CD45− gate): 95.65% | sensitivity of CSF-1-independent cell line, human fibroblasts and other endothelial cells to GW2580 [4]: highly resistant

From patent publication US10017741B2, “Compositions and methods for obtaining enriched mesenchymal stem cell cultures” (StemCell Technologies Inc., priority 2013, dated 2018)
